Measurements from patent US20250296942A1, “Phosphonate-Based Coordination Complexes and Methods of Preparation and Use Thereof” (University of Puerto Rico, priority 2021, published 2025).

Tests used:
[1] = system: human breast cancer MDA-MB-231 cell line; experiment: AlamarBlue cytotoxicity, ZOLE and nano-Ca@ZOLE, MDA-MB-231; format: cell-based; conditions: for IC50: Homo sapiens
Description: (§1) Cell culture methods: The MDA-MB-231 cell line was cultured in DMEM, 1% Pen-Strep, and 10% FBS at 37° C. in 5% CO2. The hFOB 1.19 cell line was cultured in 1:1 DMEM:F-12, 0.3 mg/mL G418, and 10% FBS at 34° C. in 5% CO2. Cell passages were performed weekly at 80% of cell confluency, and media was exchanged twice a week.
(§2) Cell treatments: Both cell lines were treated with ZOLE (control) and nano-Ca@ZOLE (experimental). First, to determine the half-maximal inhibitory concentration (IC50) two-fold serial dilutions of ZOLE (0-200 μM) were prepared. Both cell lines (MDA-MB-231 and hFOB 1.19) were seeded in 96 well plates at 2.5×10^5 cell/mL. The cells were incubated for 24 h at 37° C. (MDA-MB-231) and 34° C. (hFOB 1.19), respectively. After an initial incubation period, both cell lines were treated with 100 μL of the ZOLE solutions previously prepared, and incubation was performed for 24, 48, and 72 h at the respective incubation temperatures. For both cell lines, media (MDA-MB-231: DMEM, Pen-Strep and hFOB 1.19: DMEM, F-12, G418) were used with control groups. AlamarBlue® assay was utilized to determine cell proliferation; for this, 10% of AlamarBlue® solution in PBS was prepared. Finally, media was removed from the 96 well plates, 100 μL of 10% AlamarBlue® solution was added, and the cells were incubated for 4 h at the conditions previously set forth herein. After the AlamarBlue® assay, fluorescence (λexc=560 nm, m=590 nm) was evaluated employing an Infinite M200 PRO Tecan Microplate Reader. Live cells were assessed comparing viability of the control group (100%) with cells treated with the ZOLE solutions. The nonlinear regression method using Graph Pad Prism 8 was applied to fit the dose-response curves (% cell live vs concentration) and determined the IC50 values for ZOLE.
(§3) The percentage of relative cell live (% RCL) for ZOLE (control) and nano-Ca@ZOLE (experimental) were investigated at selected concentrations (1.9, 3.8, 7.5, and 15 μM) in both cell lines. Treatments at these concentrations were carried out at 24, 48, and 72 h for ZOLE and nano-Ca@ZOLE. The cell seeding and AlamarBlue® assay were completed as described above for IC50 determination in both cell lines. Graph Pad Prism 8 was utilized to plot the % RCL found at concentrations of 1.9, 3.8, 7.5, and 15 μM after 24, 48, and 72 h of treatment. All experiments were performed in triplicates and the data was statistically treated using mean, standard deviation, and the coefficient of variation percentage (% CV).
In this Example, the human breast cancer MDA-MB-231 and the osteoblast-like hFOB 1.19 cell lines were selected to assess cytotoxicity effects of nano-Ca@ZOLE nanocrystals. […] While, the immortalized human fetal hFOB 1.19 cell line is a homogeneous model that allows the study of osteoblast differentiation, these cells were employed to imitate the normal human bone microenvironment. To determine the IC50 values against MDA-MB-231 and hFOB 1.19 cell lines, concentrations of 0-200 μM of ZOLE were employed.

[2] = Hydroxyapatite (HA) binding assay of ZOLE and nano-Ca@ZOLE
Description: Hydroxyapatite (HA) binding assay: For the binding assay of nano-Ca@ZOLE, 20 mg of hydroxyapatite (HA) were exposed to 3 mL of a nano-Ca@ZOLE in PBS solution (0.5 mg/mL), for 0-11 days at 37° C. As control groups, nano-Ca@ZOLE and HA, both in PBS, were employed. As a comparative method, the binding assay for ZOLE “as received” was performed employing the same parameters as for the nanocrystals. For the experimental groups (HA-nano-Ca@ZOLE and HA-ZOLE), collection was performed in duplicate. Samples were collected each day for 11 consecutive days. After each time point, supernatant was collected and centrifuged (1,500 rpm, 8 min). Absorbance measurements were performed at 208 nm (λmax) to determine the percentage of ZOLE and nano-Ca@ZOLE bound to HA. Solid samples of HA, HA-ZOLE, and HA-nano-Ca@ZOLE were characterized by EDS.
The ability of nano-Ca@ZOLE to bind under simulated physiological conditions to the main constituent of the bone microenvironment, hydroxyapatite (HA), was probed through a binding assay. The binding to HA was determined by monitoring the decrease in the ZOLE concentration of the supernatant using absorption measurements (λmax=208 nm).

[3] = Dissolution of ZOLE and ZOLE-Ca form II in FaSSGF; format: physicochemical
Description: For ZOLE and ZOLE-Ca form II, dissolution measurements were performed in fasted-state simulated gastric fluid (FaSSGF). […] Absorbance measurements were performed on an Agilent Technologies Cary Series UV-Vis Spectrophotometer, Cary 100 UV-Vis model; using the UV Cary Scan software version v.20.0.470. All measurements were performed with a 400-200 nm scan.
(§4) Dissolution assays employed a maximum concentration of 0.05 mg/mL of ZOLE, which corresponded to the clinically utilized dosage of these BP.
To further investigate if the ZOLE-based BPCCs presented pH-dependent degradation, dissolution of ZOLE-Ca Form II in FaSSGF was performed.

[4] = system: normal osteoblast-like hFOB 1.19 cell line; experiment: AlamarBlue cytotoxicity, ZOLE and nano-Ca@ZOLE, hFOB 1.19; format: cell-based, human; conditions: for IC50: Homo sapiens
Description: as §1, §2, §3
In this Example, the human breast cancer MDA-MB-231 and the osteoblast-like hFOB 1.19 cell lines were selected to assess cytotoxicity effects of nano-Ca@ZOLE nanocrystals. […]

[5] = Dissolution of ZOLE and ZOLE-based BPCCs in PBS (UV-Vis 208 nm); format: physicochemical
Description: Rate measurements were recorded for the reagent grade ZOLE, ZOLE-Ca forms I and II, ZOLE-Mg forms I and II, ZOLE-Zn forms I and II in PBS, against a reagent blank. […] Absorbance measurements were performed on an Agilent Technologies Cary Series UV-Vis Spectrophotometer, Cary 100 UV-Vis model; using the UV Cary Scan software version v.20.0.470. All measurements were performed with a 400-200 nm scan.
Dissolution of ZOLE-based BPCCs was compared to that of ZOLE (active ingredient of Reclast@), to assess the structural stability of these materials in PBS and FaSSGF.
as §4

**Q.** Which “% RCL (relative cell live)” value ([1]; 1.9 μM, time not stated) does the source give for `O=P(O)(O)C(O)(Cn1ccnc1)P(=O)(O)O` [ZOLE, zoledronic acid] here?
**A.** ~100%

**Q.** What about the “% RCL” value ([1]; 3.8 μM, time not stated) of the same compound?
**A.** ~100%

**Q.** What about the “% RCL” value ([1]; 15 μM, 48 h) of the same compound?
**A.** 80±2%

**Q.** And the “% RCL” value ([1]; 15 μM, 72 h)?
**A.** 58±2%

**Q.** What about the IC50 ([1]; 24 h) of the same compound?
**A.** > 200 µM

**Q.** What about the IC50 ([1]; 48 h) of the same compound?
**A.** > 200 µM

**Q.** And the IC50 ([1]; 72 h)?
**A.** 35 µM

**Q.** What about the “time to reach maximum binding to HA” value ([2]; PBS pH 7.4) of the same compound?
**A.** 8 days

**Q.** What about the “maximum binding to HA” value ([2]; PBS pH 7.4, 37 °C, 0-11 days) of the same compound?
**A.** 82%

**Q.** What about the “bound to HA” value ([2]; PBS pH 7.4, 37 °C, 1 day (24 h)) of the same compound?
**A.** 15%

**Q.** What about the “time to reach maximum dissolution” value ([3]; FaSSGF pH 1.6) of the same compound?
**A.** 3 h

**Q.** And the “dissolution / equilibrium solubility (maximum ZOLE released)” value ([3]; FaSSGF pH 1.6, 37 °C)?
**A.** 100%

**Q.** And the “% RCL / cell death” value ([4]; 1.9-15 μM, 24, 48, 72 h)?
**A.** no significant cell death

**Q.** What about the IC50 ([4]; 24 h) of the same compound?
**A.** > 200 µM

**Q.** What about the IC50 ([4]; 48 h) of the same compound?
**A.** 86 ± 3 µM

**Q.** What about the IC50 ([4]; 72 h) of the same compound?
**A.** 49 ± 4 µM

**Q.** And the “time to reach maximum dissolution” value ([5]; PBS pH 7.4)?
**A.** 30 min

**Q.** And the “dissolution / equilibrium solubility (maximum ZOLE released)” value ([5]; PBS pH 7.4, 37 °C)?
**A.** 100%
